Test results: patent US20130190275A1, “COMBINED THERAPIES OF ANTIPSYCHOTIC DRUGS AND TETRACYCLINES IN THE TREATMENT OF PSYCHIATRIC DISORDERS” (MOR RESEARCH APPLICATIONS LTD., priority 2006, published 2013)

Test system: patients who experience first psychotic episode
Experiment: SANS (Scale for the Assessment of Negative Symptoms), adjuvant study
Format: in vivo, human
Details: atypical antipsychotic drug+minocycline 200 mg/day vs +placebo; group x time p<0.01
Procedure: The study was carried out in patients who experience first psychotic episode, and has followed the patient for a total duration of 6 months. As the study examines Minocycline as an adjuvant drug, the sample includes patients receiving one of the following atypical anti-psychotic drugs: Risperdal, Zyprexa, Geodon, Seroquel, and Leponex. […] Initial evaluation included the following clinical measures: • SCID (for reliability of diagnosis) • CGI (Clinical Global Impression) • PANSS (Positive and Negative Syndrome Scale for Schizophrenia) • SANS (Scale for the Assessment of Negative Symptoms) • Calgary Depression Scale for Schizophrenia • GAF • GRAF • Insight and Treatment Attitudes Questionnaire • QLS (Quality of Life Scale) • Multinomah Community Ability Scale • Extrapyramidal Side Effects Scale. Minocycline was given as an add-on therapy. […] Clinical status was evaluated by the aforementioned scales at the onset of the study, every week for the first 6 weeks, and then once a month for the rest of the study period. Cognitive capabilities were assessed by the neuropsychological battery of tests according to the following schedule: upon initiation of the study (referred to as visit 1 in FIGS. 5-8), 3 months (referred to as visit 2 in FIGS. 5-8), and 6 months (referred to as visit 3 in FIGS. 5-8) after the start of the study. […]

CN(C)c1ccc(O)c2c1C[C@H]1C[C@H]3[C@H](N(C)C)C(O)=C(C(N)=O)C(=O)[C@@]3(O)C(O)=C1C2=O [minocycline]
total SANS score: greater improvement than the placebo group
